Test results from PMC12587786, “In vitro α-glucosidase inhibition, molecular dynamics and docking study of phenyl carbamoyl methoxy thiosemicarbazone derivatives as potential anti-diabetic agents” (Journal of Enzyme Inhibition and Medicinal Chemistry, 2025).
Entries after “also recorded” stand apart in the source; their conditions may differ. Where two headings read alike, the source gives them in different places. Values belong to the compound of their own block, whether it stands above or below them.

Experiments:
[1] = molecular target: T1, α-glucosidase (from Saccharomyces cerevisiae EC 3.2.1.20) (Saccharomyces cerevisiae, UniProt P53341); experiment: biochemical
T1 construct: purchased Sigma
Procedure: The method described by Azizian et al. with some modifications was used to assess αglucosidase inhibitory activity of novel derivatives of phenyl carbamoyl methoxy thiosemicarbazone. The enzyme solution was prepared of αglucosidase (1 U/mL) in a […] phosphate buffer (pH: 6.8). The final volume of assay solution in the 96-well plate was 200 µl, which was prepared in the following order: 20 µl of the enzyme solution was used to obtain a final enzyme activity of […] per well. 20 µl of various concentrations of novel inhibitors (1000, 500, 250, 125, 62.5, 31.25, and 15.62 µM) and potassium phosphate buffer (135 µl, pH = 6.8). The 96-well plate was incubated for 10 min at 37 °C and pNPG as substrate (25 µl, 4 mM) was added to each well of the plate and was incubated again for 30 min at 37 °C. Finally, absorbance was measured at 405 nm using a spectrophotometer (BioTek ELx808, USA). […] The IC50 values for the tested inhibitors were calculated using Microsoft Excel 2016 software and non-linear regression analysis.

[2] = MTT cytotoxicity assay on MDA-MB-453 cells; assay type: cell-based, human; details: human, MDA-MB-453 cells (breast cancer cell line), 24 h, MTT, read-out: cell survival rate / cell viability; for viability at 24 h, 12.5 µM: MDA-MB-453, 12.5 µM; for viability at 24 h, 25 µM: MDA-MB-453, 25 µM; for viability at 24 h, 50 µM: MDA-MB-453, 50 µM; for viability at 24 h, 100 µM: MDA-MB-453, 100 µM
Procedure: (§1) To evaluate the cytotoxic effects of novel derivatives of phenyl carbamoyl methoxy thiosemicarbazone, an MTT assay was conducted using the non-small cell lung carcinoma cell line A549 and the MDA-MB-453 human breast cancer cell line. Both cell lines were obtained from the Pasteur Institute in Iran, and the assay was performed following the method of Jelena et al.[15], with some minor modifications.
(§2) In short, 100 µl of A549 cells (1 × 10^5) cultured in DMEM (Dulbecco’s modified Eagle’s medium) enriched with 10% foetal bovine serum (FBS) and 100 U/mL penicillin. […] streptomycin were added to each well in a 96-well plate, and they were incubated at 37 °C and 5% CO2 for 24 h. Also, 100 µl of MDA-MB-453 cells (1 × 10^5) cultured in RPMI enriched with 10% FBS and 100 U/mL penicillin and […] streptomycin were added to each well in a 96-well plate and were incubated at 37 °C and 5% CO2 for 24 h. Subsequently, the medium in both cell lines was replaced with different concentrations (12.5, 25, 50, and 100 µM) of two derivatives of 7e and 7 g, and plates were incubated at 37 °C and 5% CO2 for 24 h. After that, 10 µl of MTT (3–4, 5 dimethyl thiazol- 2 yl)-2, 5- diphenyl tetrazolium bromide) (Sigma USA) dye ([…] in PBS) was added to each well and incubated for 4 h at 37 °C. After 4 h, the solution was removed from the cells, and 100 µl of DMSO (dimethyl sulfoxide) was added to the wells. The optical density of each well was measured at 570 nm using an ELISA reader (BioTek ELx808, USA). The wells containing more cells have a higher optical density (OD) than those with fewer cells. Therefore, the wells with more cells can be identified using the following equation and compared with the control sample. Toxicity%=1−mean OD of sample/mean OD of control∗100 viability%=100−Toxicity %
(§3) PBS buffer and 1% Triton X-100 were negative and positive controls, respectively. All tests were conducted in triplicate.

[3] = MTT cytotoxicity assay on A549 cells; assay type: cell-based; details: human, A549 cells (non-small cell lung carcinoma cell line), 24 h, MTT, read-out: cell viability rate; for viability at 24 h, 12.5 µM: A549, 12.5 µM; for viability at 24 h, 25 µM: A549, 25 µM; for viability at 24 h, 50 µM: A549, 50 µM; for viability at 24 h, 100 µM: A549, 100 µM
Procedure: as §1, §2, §3

α-glucosidase = molecular target: T2, α-glucosidase (Saccharomyces cerevisiae, UniProt P53341); experiment: Kinetic study of α-glucosidase inhibition (Lineweaver-Burk and secondary plots); assay type: biochemical
T2 construct: purchased Sigma
Procedure: Kinetic studies were conducted to determine the inhibition mechanism of the strongest novel inhibitor with the lowest IC50. […] The experimental inhibitor constant[42] was made using secondary plots.
This was achieved using Lineweaver–Burk plots to determine the type of inhibition mechanism and the Km value. […] This mode of inhibition is particularly advantageous for antidiabetic therapy, as it facilitates glucose-dependent modulation of enzyme activity. […] These attributes highlight the promise of 7e as a therapeutic agent for managing postprandial glucose levels in individuals with type 2 DM.

[4] = test system: MDA-MB-453 human breast cancer cell line; experiment: MTT cytotoxicity assay on MDA-MB-453 cells; assay type: cell-based; details: MDA-MB-453
Procedure: as §1, §2, §3

[5] = test system: non-small cell lung carcinoma cell line A549; experiment: MTT cytotoxicity assay on A549 cells; assay type: cell-based; details: A549
Procedure: as §1, §2, §3

[6] = pNPG substrate, pH 6.8, 37 °C, mean ± SD, n = 3, read-out: IC50 (µM) ± SD, α-glucosidase inhibitory activity

T2 sequence (P53341 whole entry): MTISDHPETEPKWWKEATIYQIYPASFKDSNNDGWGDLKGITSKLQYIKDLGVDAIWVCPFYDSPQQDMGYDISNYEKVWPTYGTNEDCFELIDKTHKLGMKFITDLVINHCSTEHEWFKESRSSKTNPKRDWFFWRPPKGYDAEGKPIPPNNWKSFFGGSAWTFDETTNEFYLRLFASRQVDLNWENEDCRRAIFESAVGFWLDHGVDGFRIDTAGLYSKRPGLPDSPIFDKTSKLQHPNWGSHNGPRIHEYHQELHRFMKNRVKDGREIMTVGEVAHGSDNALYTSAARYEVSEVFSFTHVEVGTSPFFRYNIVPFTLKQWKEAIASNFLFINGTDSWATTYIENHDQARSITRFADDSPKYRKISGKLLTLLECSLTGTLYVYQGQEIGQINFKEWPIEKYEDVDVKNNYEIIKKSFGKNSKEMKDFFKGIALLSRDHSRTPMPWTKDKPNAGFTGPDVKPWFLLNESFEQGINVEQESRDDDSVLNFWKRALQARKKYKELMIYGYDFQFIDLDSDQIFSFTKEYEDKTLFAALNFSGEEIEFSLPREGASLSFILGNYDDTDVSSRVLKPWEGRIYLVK
T1 sequence (P53341 whole entry): as above

Compound: 2-{4-[(Z)-[(carbamothioylamino)imino]methyl]-2-methoxyphenoxy}-N-(4-methylphenyl) acetamide [Compound 7i]
IC50 [1, 6]: 125.9 ± 0.016 µM

Compound: COc1cc(/C=N\NC(N)=S)ccc1OCC(=O)Nc1ccccc1Cl [7 g, 2-{4-[(Z)-[(carbamothioylamino)imino]methyl]-2-methoxyphenoxy}-N-(2-chlorophenyl) acetamid]
IC50 [1]: 62.2 ± 0.411 µM
viability at 24 h, 12.5 µM [2]: 89.6%
viability at 24 h, 25 µM [2]: 66.7%
viability at 24 h, 50 µM [2]: 50.6%
viability at 24 h, 100 µM [2]: 41%
viability at 24 h, 12.5 µM [3]: 96.2%
viability at 24 h, 25 µM [3]: 72.4%
viability at 24 h, 50 µM [3]: 57.3%
viability at 24 h, 100 µM [3]: 27.7%

Compound: COc1cc(/C=N\NC(N)=S)ccc1OCC(=O)Nc1ccccc1 [Compound 7a, 2-{4-[(Z)-[(carbamothioylamino)imino]methyl]-2-methoxyphenoxy}-N-phenylacetamide]
IC50 [1]: 257 ± 0.491 µM

IC50 [1, 6]: 151.18 ± 0.02 µM
Compound: COc1cc(/C=N\NC(N)=S)ccc1OCC(=O)Nc1ccc(C)cc1 [Compound 7b, 2-{4-[(Z)-[(carbamothioylamino)imino]methyl]-2-methoxyphenoxy}-N-(4-methylphenyl) acetamide]

IC50 [1, 6]: 95.99 ± 0.273 µM
Compound: CCc1ccc(NC(=O)COc2ccc(/C=N\NC(N)=S)cc2OC)cc1 [Compound 7c, 2-{4-[(Z)-[(carbamothioylamino)imino]methyl]-2-methoxyphenoxy}-N-(4-ethylphenyl) acetamide]

Compound: COc1cc(C=NNC(N)=S)ccc1OCC(=O)NCc1ccccc1 [Compound 7d]
IC50 [1]: 216.42 ± 0.025 µM

Compound: COc1cc(/C=N\NC(N)=S)ccc1OCC(=O)Nc1cccc(C)c1 [Compound 7e, 2-{4-[(Z)-[(carbamothioylamino)imino]methyl]-2-methoxyphenoxy}-N-(3-methylphenyl) acetamide]
Ki (α-glucosidase): 34.8 µM
Type of inhibition mechanism (α-glucosidase; Lineweaver–Burk plots): competitive inhibitor
Vmax with increasing inhibitor concentration (α-glucosidase; inhibitor 0-250 µM): remained unchanged
IC50 [1]: 23.95 ± 0.038 µM
viability at 24 h, 12.5 µM [2]: 97.4%
viability at 24 h, 25 µM [2]: 74.7%
viability at 24 h, 50 µM [2]: 66.3%
viability at 24 h, 100 µM [2]: 57.2%
cytotoxic activity (in words) [4]: did not possess important cytotoxic activity; also recorded: low cytotoxicity
cytotoxic activity (in words) [5]: did not possess important cytotoxic activity; also recorded: low cytotoxicity
viability at 24 h, 12.5 µM [3]: 95.5%
viability at 24 h, 25 µM [3]: 84.3%
viability at 24 h, 50 µM [3]: 75.2%
viability at 24 h, 100 µM [3]: 63.7%

Compound: COc1cc(/C=N\NC(N)=S)ccc1OCC(=O)Nc1cccc([N+](=O)[O-])c1 [Compound 7f, 2-{4-[(Z)-[(carbamothioylamino)imino]methyl]-2-methoxyphenoxy}-N-(3-nitrophenyl) acetamide]
IC50 [1]: 328.17 ± 0.083 µM

IC50 [1, 6]: 573.67 ± 0.043 µM
Compound: COc1cc(/C=N\NC(N)=S)ccc1OCC(=O)Nc1ccc(Br)cc1 [Compound 7h, N-(4-bromophenyl)-2-{4-[(Z)-[(carbamothioylamino)imino]methyl]-2-methoxyphenoxy} acetamide]

Compound: COc1cc(/C=N\NC(N)=S)ccc1OCC(=O)Nc1cccc(C)c1C [Compound 7j, 2-{4-[(Z)-[(carbamothioylamino)imino]methyl]-2-methoxyphenoxy}-N-(2,3-dimethylphenyl) acetamide]
IC50 [1]: 103.91 ± 0.028 µM

Compound: COc1cc(/C=N\NC(N)=S)ccc1OCC(=O)Nc1ccc(Cl)cc1 [Compound 7k, 2-{4-[(Z)-[(carbamothioylamino)imino]methyl]-2-methoxyphenoxy}-N-(4-chlorophenyl) acetamide]
IC50 [1]: 442.41 ± 0.009 µM

Compound: COc1cc(/C=N\NC(N)=S)ccc1OCC(=O)Nc1ccc(C)cc1C [Compound 7l, 2-{4-[(Z)-[(carbamothioylamino)imino]methyl]-2-methoxyphenoxy}-N-(2,4-dimethylphenyl) acetamide]
IC50 [1]: 122.72 ± 0.098 µM

IC50 [1, 6]: 436.5 ± 0.062 µM
Compound: COc1ccc(NC(=O)COc2ccc(/C=N\NC(N)=S)cc2OC)cc1 [Compound 7m, 2-{4-[(Z)-[(carbamothioylamino)imino]methyl]-2-methoxyphenoxy}-N-(4-methoxyphenyl) acetamide]

Compound: COc1cc(/C=N\NC(N)=S)ccc1OCC(=O)Nc1ccccc1F [Compound 7n, 2-{4-[(Z)-[(carbamothioylamino)imino]methyl]-2-methoxyphenoxy}-N-(2-fluorophenyl) acetamide]
IC50 [1]: 95.65 ± 0.056 µM
